Reference: patent US5831026A, “Process for purifying factor VIII” (Pharmacia & Upjohn AB, priority 1994, dated 1998)
Where two headings read alike, the source gives them in different places.

Assays:
[1] = system: metal-dependent proteases; settings: 3 mM EDTA in washing and elution liquid, harvest solution no. 2
Protocol: (§1) The method chosen was a protease assay with casein which was resorufin-labeled. By treatment with proteases, resorufin-labeled peptides are released from the casein. The concentration of these resorufin-labeled peptides in the supernatant is a measure of the proteolytic activity present. The test sample was incubated at 37° C. for a period of time which was dependent upon the sample at issue. The absorption wave-length chosen was 574 run throughout the tests.
(§2) Conditioned mediums (containing human serum albumin) from two consecutive harvests, were clarified and buffered with NH4 Ac. Each resulting solution, with a pH of 6.8, was loaded onto a column containing SP SEPHAROSE® FF sold by Pharmacia AB of Uppsala, Sweden. This cation-exchange chromatography step was performed at about 8° C. After washing, factor VIII was eluted with a salt buffer containing 0.8M NaCl and 0.1M NH4 Ac. The washing liquid as well as the elution liquid contained 3 mM EDTA in the tests with harvest solution no. 2. Tests without EDTA present was carried out for comparison (harvest solution no. 1). […] The concentration of unbound Ca^2+ -ions was determined by an ion-selective electrode.

[2] = system: factor VIII; experiment: Activity of factor VIII after addition of complexing agent to eluted solution from SP Sepharose FF, COATEST chromogenic assay; format: biochemical; settings: for Factor VIII activity (IU/ml) / Factor VIII activity (%): Example 8; for Factor VIII activity (%): 0 h without additive = 100
Protocol: Tests without EDTA present were carried out for comparison.
(§3) A conditioned medium (containing human serum albumin) from a different harvest than the previous Examples, was clarified and buffered with NH4 Ac. […] After elution, various amounts of EDTA were added to the resulting solution. Tests without EDTA present were carried out for comparison. The procoagulant activity of factor VIII was determined after storage at ambient temperature for up to 246 hours, in accordance to the procedure described in Example 5.
as §3, with “28” for “246”
A conditioned medium (containing human serum albumin) from a different harvest than the previous Examples, was clarified and buffered with NH4 Ac. The resulting solution was loaded onto a column containing SP SEPHAROSE® FF. This cation-exchange chromatography step was performed at 10° C. […] After elution, EDTA or 1,10-Phenanthroline were added to the resulting solution.

[3] = system: metal-dependent proteases; experiment: Protease assay with resorufin-labeled casein in harvest solution (conditioned medium); format: biochemical, Chinese Hamster; settings: for Mean absorbance: 37° C., 2 h preincubation + 17 h, pH 7.5; for Mean absorbance corrected: blank subtracted
Protocol: as §1, with “tests. […]” for “tests.”
Preincubation of the conditioned medium with or without EDTA was conducted at 37° C. for 2 h. After the addition of substrate, further incubation was carried out for 17 h. The pH in the incubation mixture was 7.5.
Absorbance corrected, refers to the absorption after subtraction of the blank value.
Conditioned medium (containing human serum albumin) was clarified and imidazole subsequently added in an amount ranging from 3.6 mM up to 360 mM.
Conditioned medium (containing human serum albumin) was clarified and histidine subsequently added in an amount ranging from 0.14 mM to 13.6 mM.

[4] = 3 mM EDTA in washing and elution liquid; harvest solution no. 2
Protocol: as §2

[5] = 3 mM EDTA, incubation 4.5 h ambient
[6] = 3 mM EDTA, incubation 7.5 h ambient
[7] = 3 mM EDTA, incubation 24 h ambient

## O=C(O)CN(CCN(CC(=O)O)CC(=O)O)CC(=O)O [EDTA, ethylenediamine tetraacetic acid]
[1]; blank subtracted
  Mean absorbance corrected: 0.023
[1]; harvest no. 1 without EDTA = 100
  Protease activity (%): 8%
[1]; incubation 2 h
  Mean absorbance: 0.064
[2]; Example 6 (0.4M NaCl eluate), 0.01 mM EDTA, storage 0 h ambient
  Activity of factor VIII in % of the initial value: 100%
[2]; Example 6 (0.4M NaCl eluate), 0.01 mM EDTA, storage 2.5 h ambient
  Activity of factor VIII in % of the initial value: 77%
[2]; Example 6 (0.4M NaCl eluate), 0.01 mM EDTA, storage 5 h ambient
  Activity of factor VIII in % of the initial value: 59%
[2]; Example 6 (0.4M NaCl eluate), 0.01 mM EDTA, storage 10 h ambient
  Activity of factor VIII in % of the initial value: 32%
[2]; Example 6 (0.4M NaCl eluate), 0.01 mM EDTA, storage 24 h ambient
  Activity of factor VIII in % of the initial value: 1.9%
[2]; Example 6 (0.4M NaCl eluate), 0.03 mM EDTA, storage 0 h ambient
  Activity of factor VIII in % of the initial value: 100%
[2]; Example 6 (0.4M NaCl eluate), 0.03 mM EDTA, storage 2.5 h ambient
  Activity of factor VIII in % of the initial value: 76%
[2]; Example 6 (0.4M NaCl eluate), 0.03 mM EDTA, storage 5 h ambient
  Activity of factor VIII in % of the initial value: 59%
[2]; Example 6 (0.4M NaCl eluate), 0.03 mM EDTA, storage 10 h ambient
  Activity of factor VIII in % of the initial value: 33%
[2]; Example 6 (0.4M NaCl eluate), 0.03 mM EDTA, storage 24 h ambient
  Activity of factor VIII in % of the initial value: 2.1%
[2]; Example 6 (0.4M NaCl eluate), 0.1 mM EDTA, storage 0 h ambient
  Activity of factor VIII in % of the initial value: 100%
[2]; Example 6 (0.4M NaCl eluate), 0.1 mM EDTA, storage 2.5 h ambient
  Activity of factor VIII in % of the initial value: 82%
[2]; Example 6 (0.4M NaCl eluate), 0.1 mM EDTA, storage 5 h ambient
  Activity of factor VIII in % of the initial value: 65%
[2]; Example 6 (0.4M NaCl eluate), 0.1 mM EDTA, storage 10 h ambient
  Activity of factor VIII in % of the initial value: 43%
[2]; Example 6 (0.4M NaCl eluate), 0.1 mM EDTA, storage 24 h ambient
  Activity of factor VIII in % of the initial value: 4.6%
[2]; Example 6 (0.4M NaCl eluate), 0.3 mM EDTA, storage 0 h ambient
  Activity of factor VIII in % of the initial value: 100%
[2]; Example 6 (0.4M NaCl eluate), 0.3 mM EDTA, storage 2.5 h ambient
  Activity of factor VIII in % of the initial value: 79%
[2]; Example 6 (0.4M NaCl eluate), 0.3 mM EDTA, storage 5 h ambient
  Activity of factor VIII in % of the initial value: 71%
[2]; Example 6 (0.4M NaCl eluate), 0.3 mM EDTA, storage 10 h ambient
  Activity of factor VIII in % of the initial value: 55%
[2]; Example 6 (0.4M NaCl eluate), 0.3 mM EDTA, storage 24 h ambient
  Activity of factor VIII in % of the initial value: 11%
[2]; Example 6 (0.4M NaCl eluate), 1.0 mM EDTA, storage 0 h ambient
  Activity of factor VIII in % of the initial value: 100%
[2]; Example 6 (0.4M NaCl eluate), 1.0 mM EDTA, storage 2.5 h ambient
  Activity of factor VIII in % of the initial value: 90%
[2]; Example 6 (0.4M NaCl eluate), 1.0 mM EDTA, storage 5 h ambient
  Activity of factor VIII in % of the initial value: 97%
[2]; Example 6 (0.4M NaCl eluate), 1.0 mM EDTA, storage 10 h ambient
  Activity of factor VIII in % of the initial value: 97%
[2]; Example 6 (0.4M NaCl eluate), 1.0 mM EDTA, storage 24 h ambient
  Activity of factor VIII in % of the initial value: 75%
[2]; Example 6 (0.4M NaCl eluate), 1.0 mM EDTA, storage 48 h ambient
  Activity of factor VIII in % of the initial value: 54%
[2]; Example 6 (0.4M NaCl eluate), 3.0 mM EDTA, storage 0 h ambient
  Activity of factor VIII in % of the initial value: 100%
[2]; Example 6 (0.4M NaCl eluate), 3.0 mM EDTA, storage 2.5 h ambient
  Activity of factor VIII in % of the initial value: 92%
[2]; Example 6 (0.4M NaCl eluate), 3.0 mM EDTA, storage 5 h ambient
  Activity of factor VIII in % of the initial value: 102%
[2]; Example 6 (0.4M NaCl eluate), 3.0 mM EDTA, storage 10 h ambient
  Activity of factor VIII in % of the initial value: 104%
[2]; Example 6 (0.4M NaCl eluate), 3.0 mM EDTA, storage 24 h ambient
  Activity of factor VIII in % of the initial value: 100%
[2]; Example 6 (0.4M NaCl eluate), 3.0 mM EDTA, storage 48 h ambient
  Activity of factor VIII in % of the initial value: 96%
[2]; Example 6 (0.4M NaCl eluate), 3.0 mM EDTA, storage 72 h ambient
  Activity of factor VIII in % of the initial value: 80%
[2]; Example 6 (0.4M NaCl eluate), 3.0 mM EDTA, storage 100 h ambient
  Activity of factor VIII in % of the initial value: 91%
[2]; Example 6 (0.4M NaCl eluate), 3.0 mM EDTA, storage 246 h ambient
  Activity of factor VIII in % of the initial value: 72%
[2]; Example 7 (0.8M NaCl eluate), 1 mM EDTA, storage 0 h ambient
  Activity of factor VIII in % of the initial value: 100%
[2]; Example 7 (0.8M NaCl eluate), 1 mM EDTA, storage 5 h ambient
  Activity of factor VIII in % of the initial value: 119%
[2]; Example 7 (0.8M NaCl eluate), 1 mM EDTA, storage 28 h ambient
  Activity of factor VIII in % of the initial value: 64%
[2]; Example 7 (0.8M NaCl eluate), 2 mM EDTA, storage 0 h ambient
  Activity of factor VIII in % of the initial value: 100%
[2]; Example 7 (0.8M NaCl eluate), 2 mM EDTA, storage 5 h ambient
  Activity of factor VIII in % of the initial value: 120%
[2]; Example 7 (0.8M NaCl eluate), 2 mM EDTA, storage 28 h ambient
  Activity of factor VIII in % of the initial value: 100%
[2]; Example 7 (0.8M NaCl eluate), 3 mM EDTA, storage 0 h ambient
  Activity of factor VIII in % of the initial value: 100%
[2]; Example 7 (0.8M NaCl eluate), 3 mM EDTA, storage 5 h ambient
  Activity of factor VIII in % of the initial value: 120%
[2]; Example 7 (0.8M NaCl eluate), 3 mM EDTA, storage 28 h ambient
  Activity of factor VIII in % of the initial value: 90%
[2]; Example 7 (0.8M NaCl eluate), 4 mM EDTA, storage 0 h ambient
  Activity of factor VIII in % of the initial value: 100%
[2]; Example 7 (0.8M NaCl eluate), 4 mM EDTA, storage 5 h ambient
  Activity of factor VIII in % of the initial value: 109%
[2]; Example 7 (0.8M NaCl eluate), 4 mM EDTA, storage 28 h ambient
  Activity of factor VIII in % of the initial value: 103%
[2]; Example 7 (0.8M NaCl eluate), 5 mM EDTA, storage 0 h ambient
  Activity of factor VIII in % of the initial value: 100%
[2]; Example 7 (0.8M NaCl eluate), 5 mM EDTA, storage 5 h ambient
  Activity of factor VIII in % of the initial value: 116%
[2]; Example 7 (0.8M NaCl eluate), 5 mM EDTA, storage 28 h ambient
  Activity of factor VIII in % of the initial value: 91%
[2]; [5]
  Factor VIII activity (IU/ml): 813 IU/ml
  Factor VIII activity (%): 92%
[2]; [6]
  Factor VIII activity (IU/ml): 862 IU/ml
  Factor VIII activity (%): 97%
[2]; [7]
  Factor VIII activity (IU/ml): 763 IU/ml
  Factor VIII activity (%): 86%
[3]; 0.23 mM EDTA
  Protease activity (%): 43%
  Mean absorbance: 1835
  Mean absorbance corrected: 865
[3]; 1.2 mM EDTA
  Protease activity (%): 8%
  Mean absorbance: 1141
  Mean absorbance corrected: 171
[3]; 2.3 mM EDTA
  Protease activity (%): 5%
  Mean absorbance: 1069
  Mean absorbance corrected: 99
[3]; 11.5 mM EDTA
  Protease activity (%): 1%
  Mean absorbance: 994
  Mean absorbance corrected: 24
[3]; 23 mM EDTA
  Protease activity (%): -2%
  Mean absorbance: 933
  Mean absorbance corrected: -37
[4]
  Unbound Ca^2+ ions: 25 mM
